Earlier results in patent publication US20250360058A1, “IN SITU FORMED CATIONIC ACP GEL FOR TREATMENT OF TOOTH […]” (KONINKLIJKE PHILIPS N.V., priority 2022, published 2025).

Settings: between pH 6.5-8.0

N=C(N)NCCC[C@H](N)C(=O)O [Arginine, arginine]
positively charged basic side chains: 100%

NCCCC[C@H](N)C(=O)O [Lysine, lysine]
positively charged basic side chains: 100%
